Laboratory results: patent publication US12371454B2, “Cyclic peptide compound having Kras inhibitory action” (priority 2019, dated 2025)
Starred links: 1 amine or outer side, 2 acyl side, 3 side chain; linkers in the order of their positions; H or OH if unused. Positions of bridges follow the written chain, without caps; N, C: chain ends. Non-standard residues stand in square brackets, D forms with d. Residues, ends and D or L forms follow the SMILES beside them. *: point of attachment. NMeAbu(3,3-F2-piperidino) = CN[C@@H](CCN1CCCC(F)(F)C1)C(=O)O; hPhe(3-Cl-4-CF3) = N[C@@H](CCc1ccc(C(F)(F)F)c(Cl)c1)C(=O)O; hPhe(3-F,4-CF3) = N[C@@H](CCc1ccc(C(F)(F)F)c(F)c1)C(=O)O; hPhe(4-CF3) = N[C@@H](CCc1ccc(C(F)(F)F)cc1)C(=O)O; NMePhe(4-Cl) = CN[C@@H](Cc1ccc(Cl)cc1)C(=O)O; NMedβ3hAla = C[C@H](CC(=O)[*:2])N(C)[*:1]; Abu(4,4,4-F3) = N[C@@H](CC(F)(F)F)C(=O)O; NMeGly(cPent) = CN[C@H](C(=O)O)C1CCCC1; dαMeGly(allyl) = C=CC[C@@](C)(N)C(=O)O; Phe(2-F) = N[C@@H](Cc1ccccc1F)C(=O)O; NMeY = CN[C@@H](Cc1ccc(O)cc1)C(=O)O; NMeCha = CN[C@@H](CC1CCCCC1)C(=O)O; Azetidine(3,3-F2) = FC1(F)CN(*)C1; NMeChg = CN[C@H](C(=O)O)C1CCCCC1; NMeF = CN[C@@H](Cc1ccccc1)C(=O)O; NMeD = CN[C@@H](CC(=O)O)C(=O)O; NMeL = CN[C@@H](CC(C)C)C(=O)O; NMeV = CN[C@H](C(=O)O)C(C)C; d(β3hA) = C[C@@H](N)CC(=O)O; NMeS = CN[C@@H](CO)C(=O)O; Pip = O=C(O)[C@@H]1CCCCN1; NMeA = CN[C@@H](C)C(=O)O; NMeAib = CNC(C)(C)C(=O)O; Nle = CCCC[C@H](N)C(=O)O; Piperidide = C1CCN(*)CC1; Pyrrolidide = C1CCN(*)C1; dNMeA = CN[C@H](C)C(=O)O; Ac5c = NC1(C(=O)O)CCCC1; Aze = O=C(O)[C@@H]1CCN1; Isopentyl = CC(C)CC*; Sar = CNCC(=O)O

Target: T1, Kras and SOS1 (biotin-tagged human Kras loaded with GDP, His-tagged human SOS1) (Homo sapiens, UniProt P01116, G12D)
T1 construct: made in house; host or cells: E. coli (stated for Kras only)
T1 sequence (P01116 1-188 isoform P01116-2 G12D): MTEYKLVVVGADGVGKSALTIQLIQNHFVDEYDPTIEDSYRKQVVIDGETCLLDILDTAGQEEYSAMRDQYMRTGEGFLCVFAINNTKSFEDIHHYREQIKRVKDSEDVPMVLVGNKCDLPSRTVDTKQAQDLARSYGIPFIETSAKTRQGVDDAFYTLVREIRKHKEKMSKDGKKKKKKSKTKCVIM
Experiment: Protein-protein interaction inhibition between Kras and SOS1 (KrasGl2D-SOS PPI) using AlphaScreen
Type: binding
Conditions: AlphaScreen; biotin-tagged human Kras loaded with GDP, His-tagged human SOS1; read-out: KRAS G12D-SOS PPI IC50
How it was run: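 AlphaScreen format: Ni donor beads capture His-SOS1, streptavidin acceptor beads capture biotinylated Kras (E. coli-expressed, GDP-loaded post-purification). Excite 680 nm, read 520-620 nm.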

Structure (SMILES): C=CC[C@@]1(C)NC(=O)[C@@H]2CCCN2C(=O)[C@H](CCc2ccc(C(F)(F)F)c(Cl)c2)NC(=O)CN(C)C(=O)[C@H](CC2CCCCC2)N(C)C(=O)CN(C)C(=O)CN(C)C(=O)[C@H]([C@@H](C)CC)NC(=O)[C@H](CC(C)C)N(C)C(=O)C[C@@H](C)NC(=O)[C@H](C(C)C)N(C)C1=O [Compound 665] (cyclo(I[Sar][Sar][NMeCha][Sar][hPhe(3-Cl-4-CF3)]P[dαMeGly(allyl)][NMeV][d(β3hA)][NMeL]))
- IC50: 37 nM

Structure (SMILES): CC[C@H](C)[C@@H]1NC(=O)[C@H](C)N(C)C(=O)C[C@@H](C)NC(=O)[C@H](C(C)C)N(C)C(=O)C2(CCCC2)NC(=O)[C@@H]2CCCN2C(=O)[C@H](CCc2ccc(C(F)(F)F)c(Cl)c2)NC(=O)[C@H]2CCCN2C(=O)[C@H](CC2CCCCC2)N(C)C(=O)[C@@H]2CCCN2C(=O)CN(C)C1=O [Compound 666] (cyclo([Ac5c][NMeV][d(β3hA)][NMeA]I[Sar]P[NMeCha][dP][hPhe(3-Cl-4-CF3)]P))
- IC50: 25 nM

Structure (SMILES): CC[C@H](C)[C@@H]1NC(=O)[C@@H]2CCCCN2C(=O)C[C@@H](C(=O)N2CCCCC2)N(C)C(=O)[C@H](C(C)C)N(C)C(=O)C2(CCCC2)NC(=O)[C@@H]2CCCN2C(=O)[C@H](CCc2ccc(C(F)(F)F)c(F)c2)NC(=O)CN(C)C(=O)[C@H](CC2CCCCC2)N(C)C(=O)CN(C)C(=O)CN(C)C1=O [Compound 670] ([Pip]I[Sar][Sar][NMeCha][Sar][hPhe(3-F,4-CF3)]P[Ac5c][NMeV][NMeD]-Piperidide; lactam N-11)
- IC50: 5.1 nM

Structure (SMILES): CC[C@H](C)[C@@H]1NC(=O)[C@H](C)N(C)C(=O)C[C@@H](C)NC(=O)[C@H](C2CCCC2)N(C)C(=O)C2(CCCC2)NC(=O)[C@@H]2CCCN2C(=O)[C@H](CCc2ccc(C(F)(F)F)c(Cl)c2)NC(=O)[C@@H](C)N(C)C(=O)[C@H](Cc2ccccc2)N(C)C(=O)[C@@H]2CCN2C(=O)[C@H](C)N(C)C1=O [Compound 671] (cyclo([Ac5c][NMeGly(cPent)][d(β3hA)][NMeA]I[NMeA][Aze][NMeF][dNMeA][hPhe(3-Cl-4-CF3)]P))
- IC50: 52 nM

Structure (SMILES): CC[C@H](C)[C@@H]1NC(=O)[C@H](C)N(C)C(=O)C[C@@H](C(=O)N2CCCC2)NC(=O)[C@H](CC(C)C)N(C)C(=O)[C@H](COCCC(C)C)N(C)C(=O)[C@H](CC(C)C)NC(=O)[C@H](CCc2ccc(C(F)(F)F)cc2)NC(=O)CN(C)C(=O)[C@H](Cc2ccc(Cl)cc2)N(C)C(=O)CN(C)C(=O)CN(C)C1=O [Compound 675] ([NMeA]I[Sar][Sar][NMePhe(4-Cl)][Sar][hPhe(4-CF3)]L[NMeS](Isopentyl)[NMeL]D-Pyrrolidide; lactam N-11)
- IC50: 59 nM

Structure (SMILES): CC[C@H](C)[C@@H]1NC(=O)[C@H](C)N(C)C(=O)C[C@@H](C(=O)N2CCCCC2)N(C)C(=O)[C@H](C(C)C)N(C)C(=O)[C@H](CC(F)(F)F)NC(=O)[C@H](CC(=O)N2CC(F)(F)C2)N(C)C(=O)[C@H](CCc2ccc(C(F)(F)F)c(Cl)c2)NC(=O)CN(C)C(=O)[C@H](CC2CCCCC2)N(C)C(=O)CN(C)C(=O)CN(C)C1=O [Compound 679] ([NMeA]I[Sar][Sar][NMeCha][Sar][hPhe(3-Cl-4-CF3)][NMeD](Azetidine(3,3-F2))[Abu(4,4,4-F3)][NMeV][NMeD]-Piperidide; lactam N-11)
- IC50: 37 nM

Structure (SMILES): CCCC[C@@H]1NC(=O)[C@H](Cc2ccccc2F)NC(=O)CN(C)C(=O)[C@H](Cc2ccc(OC)cc2)N(C)C(=O)CN(C)C(=O)CN(C)C(=O)[C@H]([C@@H](C)CC)NC(=O)[C@H](CC(C)C)N(C)C(=O)C[C@@H](C(=O)N2CCCCC2)N(C)C(=O)[C@H](CC(C)C)NC(=O)[C@H](Cc2ccc(OC)cc2)N(C)C1=O [Compound 681] ([NMeL]I[Sar][Sar][NMeY](Me)[Sar][Phe(2-F)][Nle][NMeY](Me)L[NMeD]-Piperidide; lactam N-11)
- IC50: 5.9 nM

Structure (SMILES): CC[C@H](C)[C@@H]1NC(=O)[C@H](C)N(C)C(=O)C[C@@H](C(=O)N2CCCCC2)N(C)C(=O)[C@H](C(C)C)N(C)C(=O)C2(CCCC2)NC(=O)[C@H](CCN2CCCC(F)(F)C2)N(C)C(=O)[C@H](CCc2ccc(C(F)(F)F)c(Cl)c2)NC(=O)CN(C)C(=O)[C@H](CC2CCCCC2)N(C)C(=O)[C@@H]2CCN2C(=O)[C@H](C)N(C)C1=O [Compound 682] ([NMeA]I[NMeA][Aze][NMeCha][Sar][hPhe(3-Cl-4-CF3)][NMeAbu(3,3-F2-piperidino)][Ac5c][NMeV][NMeD]-Piperidide; lactam N-11)
- IC50: 20 nM

Structure (SMILES): CC[C@H](C)[C@@H]1NC(=O)[C@H](CC(C)C)N(C)C(=O)C[C@@H](C)N(C)C(=O)[C@H](CC(C)C)NC(=O)C(C)(C)N(C)C(=O)[C@H](CC(C)C)NC(=O)[C@H](CCc2ccc(C(F)(F)F)c(F)c2)NC(=O)CN(C)C(=O)[C@H](CC2CCCCC2)N(C)C(=O)[C@@H]2CCN2C(=O)[C@H](C)N(C)C1=O [Compound 686] (cyclo([Aze][NMeCha][Sar][hPhe(3-F,4-CF3)]L[NMeAib]L[NMedβ3hAla][NMeL]I[NMeA]))
- IC50: 170 nM

Structure (SMILES): CC[C@H](C)[C@@H]1NC(=O)[C@H](CC(C)C)N(C)C(=O)C[C@@H](C(=O)N2CCCCC2)N(C)C(=O)[C@H](C2CCCCC2)N(C)C(=O)C2(CCCC2)NC(=O)[C@H](CC(=O)O)N(C)C(=O)[C@H](CCc2ccc(C(F)(F)F)c(Cl)c2)NC(=O)CN(C)C(=O)[C@H](CC2CCCCC2)N(C)C(=O)CN(C)C(=O)CN(C)C1=O [Compound 688] ([NMeL]I[Sar][Sar][NMeCha][Sar][hPhe(3-Cl-4-CF3)][NMeD][Ac5c][NMeChg][NMeD]-Piperidide; lactam N-11)
- IC50: 2.3 nM
